Read-outs that look alike come from different tables or passages of the source.
Experiments:
human PPARγ = target: T1, human PPARγ (Homo sapiens, UniProt P37231); assay: Human PPAR activation, transient transfection in CV-1 cells (gamma subtype); format: cell-based
T1 construct: expressed in transfected cells; host or cells: CV-1 cells
T1 sequence (P37231 1-505): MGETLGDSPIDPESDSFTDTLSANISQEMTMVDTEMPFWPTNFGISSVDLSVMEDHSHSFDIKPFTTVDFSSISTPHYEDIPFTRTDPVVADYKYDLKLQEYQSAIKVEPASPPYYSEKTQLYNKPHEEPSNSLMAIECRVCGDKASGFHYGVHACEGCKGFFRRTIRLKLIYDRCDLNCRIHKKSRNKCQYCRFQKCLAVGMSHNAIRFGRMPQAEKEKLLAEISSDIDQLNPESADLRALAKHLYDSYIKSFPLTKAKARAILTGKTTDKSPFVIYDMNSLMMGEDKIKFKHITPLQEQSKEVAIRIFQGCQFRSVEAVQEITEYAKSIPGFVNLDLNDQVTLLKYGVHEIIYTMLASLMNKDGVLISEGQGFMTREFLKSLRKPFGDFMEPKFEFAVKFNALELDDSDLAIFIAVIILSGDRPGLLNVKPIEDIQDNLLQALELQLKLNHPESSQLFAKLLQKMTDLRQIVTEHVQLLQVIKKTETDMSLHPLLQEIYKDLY
Text: PPAR receptor agonist activity may be determined by conventional screening methods known to the skilled in the art. For example, methods described in U.S. Patent Application Publication No. 2007/0054907, 2008/0262047 and U.S. Pat. No. 7,314,879, which are incorporated by reference in their entireties.
The table summarize the results of studies performed in transfected CV-1 cells with three different lots of Compound of Example 11. […].

[1] = system: glucose metabolism in the brain
[2] = 3 mg, White Matter as Reference Region
[3] = 3 mg, Whole Brain as Reference Region
[4] = 10 mg, White Matter as Reference Region
[5] = 10 mg, Whole Brain as Reference Region
[6] = 30 mg, White Matter as Reference Region
[7] = 30 mg, Whole Brain as Reference Region
[8] = 90 mg, White Matter as Reference Region
[9] = 90 mg, Whole Brain as Reference Region

Structure (SMILES): CCc1oc(-c2ccc(OC)cc2)nc1CCOc1ccc2c(c1)CC[C@H]2CC(=O)[O-].[Na+] [Example 11, Sodium (S)-2-(5-(2-(5-ethyl-2-(4-methoxyphenyl)oxazol-4-yl)ethoxy)-2,3-dihydro-1H-inden-1-yl)acetate]
- Peak effect PPARγ (human PPARγ): 29.49
- Δ R CMRgI (EOT-BL) Sensory Motor Cortex Left, Ave [1, 2]: −0.0005
- Δ R CMRgI (EOT-BL) Sensory Motor Cortex Right, Ave [1, 2]: −0.0151
- Δ R CMRgI (EOT-BL) Visual Cortex Left, Ave [1, 2]: −0.0219
- Δ R CMRgI (EOT-BL) Visual Cortex Right, Ave [1, 2]: −0.0272
- Δ R CMRgI (EOT-BL) Sensory Motor Cortex Left, Ave [1, 3]: 0.0152
- Δ R CMRgI (EOT-BL) Sensory Motor Cortex Right, Ave [1, 3]: −0.0037
- Δ R CMRgI (EOT-BL) Visual Cortex Left, Ave [1, 3]: −0.0196
- Δ R CMRgI (EOT-BL) Visual Cortex Right, Ave [1, 3]: −0.0269
- spatial extent of ROSDs with positive ΔR CMRgl (EOT-BL) relative to Whole Brain ([1]; 10 mg): 70 voxels
- Δ R CMRgI (EOT-BL) Sensory Motor Cortex Left, Ave [1, 4]: 0.0005
- Δ R CMRgI (EOT-BL) Sensory Motor Cortex Right, Ave [1, 4]: −0.0005
- Δ R CMRgI (EOT-BL) Visual Cortex Left, Ave [1, 4]: −0.0014
- Δ R CMRgI (EOT-BL) Visual Cortex Right, Ave [1, 4]: −0.0033
- Δ R CMRgI (EOT-BL) Sensory Motor Cortex Left, Ave [1, 5]: 0.0008
- Δ R CMRgI (EOT-BL) Sensory Motor Cortex Right, Ave [1, 5]: 0.0003
- Δ R CMRgI (EOT-BL) Visual Cortex Left, Ave [1, 5]: −0.0032
- Δ R CMRgI (EOT-BL) Visual Cortex Right, Ave [1, 5]: −0.0053
- Δ R CMRgI (EOT-BL) Sensory Motor Cortex Left, Ave [1, 6]: −0.0040
- Δ R CMRgI (EOT-BL) Sensory Motor Cortex Right, Ave [1, 6]: −0.0229
- Δ R CMRgI (EOT-BL) Visual Cortex Left, Ave [1, 6]: −0.0314
- Δ R CMRgI (EOT-BL) Visual Cortex Right, Ave [1, 6]: −0.0408
- Δ R CMRgI (EOT-BL) Sensory Motor Cortex Left, Ave [1, 7]: 0.0213
- Δ R CMRgI (EOT-BL) Sensory Motor Cortex Right, Ave [1, 7]: −0.0040
- Δ R CMRgI (EOT-BL) Visual Cortex Left, Ave [1, 7]: −0.0158
- Δ R CMRgI (EOT-BL) Visual Cortex Right, Ave [1, 7]: −0.0271
- Δ R CMRgI (EOT-BL) Sensory Motor Cortex Left, Ave [1, 8]: −0.0076
- Δ R CMRgI (EOT-BL) Sensory Motor Cortex Right, Ave [1, 8]: −0.0078
- Δ R CMRgI (EOT-BL) Visual Cortex Left, Ave [1, 8]: −0.0775
- Δ R CMRgI (EOT-BL) Visual Cortex Right, Ave [1, 8]: −0.0730
- Δ R CMRgI (EOT-BL) Sensory Motor Cortex Left, Ave [1, 9]: 0.0244
- Δ R CMRgI (EOT-BL) Sensory Motor Cortex Right, Ave [1, 9]: 0.0251
- Δ R CMRgI (EOT-BL) Visual Cortex Left, Ave [1, 9]: −0.0685
- Δ R CMRgI (EOT-BL) Visual Cortex Right, Ave [1, 9]: −0.0604
- dose dependence of effect on FDG-PET outcomes ([1]; 3 to 90 mg): dose-dependent
- effect on glucose metabolism in the brain ([1]; two week treatment): altered the glucose metabolism in the brain
- Blood Brain Barrier penetration inferred from FDG-PET ([1]; voxel-wise (SPM) analysis, even at the lowest 3 mg): penetrates the Blood Brain Barrier (BBB)
